# According to publication PMC12320693, “Non-edible onion skin waste as a source of bioactive agents for functional foods development: Chemical composition and multifunctional bioactivity” (Food Chemistry: X, 2025):
# Read-outs that look alike come from different tables or passages of the source.
# Assays:
# [1] = system: NO production in LPS-induced BV-2 cells; parameters: method as in Sun et al., 2015; settings: ref Sun et al., 2015; cited from earlier work
# [2] = system: Aspergillus fumigatus (ATCC 204305); test: Antifungal activity, Aspergillus fumigatus; assay type: cell-based
# Procedure: (§1) Three yeast strains (Candida albicans (ATCC 10231), Candida krusei (ATCC 6258), and Cryptococcus neoformans (CECT1078)) and filamentous fungi (one Aspergillus fumigatus (ATCC 204305) and three dermatophytes (Trichophyton rubrum (FF5), Nannizzia gypsea (formerly Microsporum gypseum-FF3) and Epidermophyton floccosum (FF9)) were used in this work. Sub-cultures were prepared in Sabouraud Dextrose Agar medium (SDA) from 1–2 days (yeasts and Aspergillus) to 5–7 days (dermatophytes) to ensure optimal growth conditions and purity.
# (§2) Fungal organisms were cultured in SDA and then suspended in RPMI-1640 broth. Serial dilutions of the onion skin extract solutions, prepared from a stock solution (8 mg/mL in DMSO), were prepared in RPMI-1640 broth, starting at a concentration of 4 mg/mL. Sample dilutions and cell suspensions were distributed into 96 well plates and incubated under aerobic, humid conditions at 26 °C for dermatophytes and 36 °C for the other organisms. Incubation times were 5 to 7 days for dermatophytes, 72 h for C. neoformans, and 48 h for the remaining organisms. […] In cases where MIC was determined, 20 μL from wells without visible growth were cultured on SDA plates, incubating under the same conditions previously described for each organism. The Minimal Fungicidal Concentration (MFC) was then determined as the lowest concentration where complete no growth was observed on the SDA plates. All the experiments were conducted in triplicate.
# [3] = Superoxide anion radical scavenging activity; assay type: biochemical
# Procedure: The ability of the onion skin extracts to scavenge the superoxide anion (O2^●-) radical was determined according to [Ferreres et al. (2021)]. Equal volumes (50 μL) of the extract solutions, diluted in 19 mM phosphate buffer (pH 7.4), and 0.166 mM NADH, and three volumes of 0.043 mM nitrotetrazolium blue chloride were combined. The reaction was initiated by adding 50 μL of 2.7 μM phenazine methosulfate, and absorbance was recorded at 560 nm. A control was prepared substituting sample with buffer.
# [4] = system: Cryptococcus neoformans (CECT1078); test: Antifungal activity, Cryptococcus neoformans; assay type: cell-based
# Procedure: as §1, §2
# [5] = system: Epidermophyton floccosum (FF9); test: Antifungal activity, Epidermophyton floccosum; assay type: cell-based
# Procedure: as §1, §2
# [6] = system: Candida albicans (ATCC 10231); test: Antifungal activity, Candida albicans; assay type: cell-based
# Procedure: as §1, §2
# [7] = system: Nannizzia gypsea (formerly Microsporum gypseum-FF3); test: Antifungal activity, Nannizzia gypsea; assay type: cell-based
# Procedure: as §1, §2
# [8] = Nitric oxide radical scavenging activity; assay type: biochemical
# Procedure: The capacity of the onion skin extracts to scavenge the nitric oxide (^●NO) radical was assessed using the method described by [Ferreres et al. (2021)]. This involved mixing 100 μL of the extract solutions, diluted in 0.1 M phosphate buffer (pH 7.4), with the same volume of 20 mM sodium nitroprusside dihydrate. After a 60 min incubation under light, the Griess reagent (100 μL) was added, followed by 10 min incubation in the dark, and absorbance was measured at 560 nm. Quercetin was used as positive control. At least five different concentrations were tested for each onion skin extract, with a minimum of three independent experiments conducted in triplicate. A control was prepared replacing sample with buffer, and a blank with phosphoric acid instead of the Griess reagent.
# [9] = system: Candida krusei (ATCC 6258); test: Antifungal activity, Candida krusei; assay type: cell-based; settings: Pichia kudriavzevii, ATCC6258
# Procedure: as §1, §2
# [10] = system: Trichophyton rubrum (FF5); test: Antifungal activity, Trichophyton rubrum; assay type: cell-based
# Procedure: as §1, §2
# [11] = parameters: method as in Li et al., 2011; settings: ref Li et al., 2011; cited from earlier work
# [12] = target: T1, xanthine oxidase (Bos taurus, UniProt P80457); test: Xanthine oxidase inhibition assay; assay type: biochemical
# T1 construct: purchased Sigma-Aldrich (St. Louis, MO, USA); host or cells: bovine milk
# Procedure: Xanthine oxidase activity was determined using a previously established method by monitoring the conversion of xanthine to uric acid ([Trigueros, Oliveira, et al., 2024]). 200 μL of the extract solutions, diluted in 5 mM phosphate buffer (pH 7.4), was mixed with 10 μL of xanthine oxidase solution, incubated for 5 min at 37 °C, followed by the addition of 40 μL of 1.25 mM xanthine solution, and absorbance was measured at 295 nm. A control assay was prepared with buffer.
# [13] = ref Yuting et al., 1990; cited from earlier work
# [14] = target: T2, acetylcholinesterase (Electrophorus electricus, UniProt O42275); test: Acetylcholinesterase (AChE) inhibition assay; assay type: biochemical
# T2 construct: purchased Sigma-Aldrich (St. Louis, MO, USA)
# Procedure: Acetylcholinesterase activity was assessed combining 75 μL of the extract solutions, prepared in 50 mM Tris-HCl buffer (pH 8.0), plus 0.1 % (w/v) albumin, with 25 μL of 15 mM ATCI and 125 μL of 3 mM DTNB. The formation of 5-thio-2-nitrobenzoate was monitored at 405 nm ([Trigueros, Oliveira, et al., 2024]).
# [15] = parameters: method as in Li et al., 2011; settings: ref Li et al., 2011; cited from earlier work; remark: listed apart in the source
# [16] = parameters: method as in Li et al., 2011; settings: ref Li et al., 2011; cited from earlier work; remark: listed apart in the source
# [17] = target: T3, α-glucosidase (Saccharomyces cerevisiae, UniProt P53341); test: α-Glucosidase activity assay (pure enzyme); assay type: biochemical
# T3 construct: purchased Sigma-Aldrich (St. Louis, MO, USA)
# Procedure: Enzymes for in vitro enzymatic assays were aldose-reductase (Homo sapiens, human) from Prozomix (UK), α-amylase (porcine pancreas), α-glucosidase (Saccharomyces cerevisiae), acetylcholinesterase from Electrophorus electricus, lipoxygenase from Glycine max (soybean), tyrosinase from mushroom, xanthine oxidase from bovine milk, all provided by Sigma-Aldrich (St. Louis, MO, USA).
# α-Glucosidase activity was evaluated incubating 180 μL of a mixture of the extract solutions, prepared in 10 mM potassium phosphate buffer (pH 7.0), and 20 μL of the enzyme solution at 37 °C for 2 min. Absorbance at 405 nm was measured after adding 100 μL of 2.5 mM 4-nitrophenyl-α-D-glucopyranoside, and after 10 min incubation.
# [18] = target: T4, 5-LOX (lipoxygenase) (Glycine max, UniProt P08170); test: Lipoxygenase (5-LOX) activity assay; assay type: biochemical, Glycine max (soybean)
# T4 construct: purchased Sigma-Aldrich (St. Louis, MO, USA)
# Procedure: The ability of the extracts and pure compounds to inhibit 5-LOX activity was assessed by measuring their capacity to prevent linoleic oxidation. In short, 200 μL of the extract solutions, diluted in 100 mM phosphate buffer (pH 9.0), was mixed with 20 μL of the enzyme solution and 20 μL of 4.18 mM linoleic acid prepared in ethanol, and the absorbance at 234 nm was measured. A control was prepared with buffer instead of sample ([Trigueros, Oliveira, et al., 2024]).
# [19] = 100 % growth inhibition, read-out: MIC
# T2 sequence (O42275 24-633): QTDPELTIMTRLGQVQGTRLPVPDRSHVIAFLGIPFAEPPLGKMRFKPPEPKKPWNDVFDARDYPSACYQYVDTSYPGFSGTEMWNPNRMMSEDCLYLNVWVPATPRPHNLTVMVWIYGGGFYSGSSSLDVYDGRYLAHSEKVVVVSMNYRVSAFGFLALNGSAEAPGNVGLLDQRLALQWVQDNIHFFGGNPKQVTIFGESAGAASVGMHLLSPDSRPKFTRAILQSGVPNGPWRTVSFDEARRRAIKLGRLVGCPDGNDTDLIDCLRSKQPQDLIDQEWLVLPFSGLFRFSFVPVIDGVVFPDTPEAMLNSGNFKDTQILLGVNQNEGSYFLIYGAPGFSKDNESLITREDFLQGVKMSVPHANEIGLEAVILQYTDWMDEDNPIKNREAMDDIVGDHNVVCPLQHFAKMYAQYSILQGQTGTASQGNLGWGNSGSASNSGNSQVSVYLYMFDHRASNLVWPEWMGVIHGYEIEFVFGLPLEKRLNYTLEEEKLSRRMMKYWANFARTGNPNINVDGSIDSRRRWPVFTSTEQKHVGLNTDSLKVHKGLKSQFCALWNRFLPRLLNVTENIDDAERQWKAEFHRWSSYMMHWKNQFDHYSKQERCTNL
# T1 sequence (P80457 whole entry): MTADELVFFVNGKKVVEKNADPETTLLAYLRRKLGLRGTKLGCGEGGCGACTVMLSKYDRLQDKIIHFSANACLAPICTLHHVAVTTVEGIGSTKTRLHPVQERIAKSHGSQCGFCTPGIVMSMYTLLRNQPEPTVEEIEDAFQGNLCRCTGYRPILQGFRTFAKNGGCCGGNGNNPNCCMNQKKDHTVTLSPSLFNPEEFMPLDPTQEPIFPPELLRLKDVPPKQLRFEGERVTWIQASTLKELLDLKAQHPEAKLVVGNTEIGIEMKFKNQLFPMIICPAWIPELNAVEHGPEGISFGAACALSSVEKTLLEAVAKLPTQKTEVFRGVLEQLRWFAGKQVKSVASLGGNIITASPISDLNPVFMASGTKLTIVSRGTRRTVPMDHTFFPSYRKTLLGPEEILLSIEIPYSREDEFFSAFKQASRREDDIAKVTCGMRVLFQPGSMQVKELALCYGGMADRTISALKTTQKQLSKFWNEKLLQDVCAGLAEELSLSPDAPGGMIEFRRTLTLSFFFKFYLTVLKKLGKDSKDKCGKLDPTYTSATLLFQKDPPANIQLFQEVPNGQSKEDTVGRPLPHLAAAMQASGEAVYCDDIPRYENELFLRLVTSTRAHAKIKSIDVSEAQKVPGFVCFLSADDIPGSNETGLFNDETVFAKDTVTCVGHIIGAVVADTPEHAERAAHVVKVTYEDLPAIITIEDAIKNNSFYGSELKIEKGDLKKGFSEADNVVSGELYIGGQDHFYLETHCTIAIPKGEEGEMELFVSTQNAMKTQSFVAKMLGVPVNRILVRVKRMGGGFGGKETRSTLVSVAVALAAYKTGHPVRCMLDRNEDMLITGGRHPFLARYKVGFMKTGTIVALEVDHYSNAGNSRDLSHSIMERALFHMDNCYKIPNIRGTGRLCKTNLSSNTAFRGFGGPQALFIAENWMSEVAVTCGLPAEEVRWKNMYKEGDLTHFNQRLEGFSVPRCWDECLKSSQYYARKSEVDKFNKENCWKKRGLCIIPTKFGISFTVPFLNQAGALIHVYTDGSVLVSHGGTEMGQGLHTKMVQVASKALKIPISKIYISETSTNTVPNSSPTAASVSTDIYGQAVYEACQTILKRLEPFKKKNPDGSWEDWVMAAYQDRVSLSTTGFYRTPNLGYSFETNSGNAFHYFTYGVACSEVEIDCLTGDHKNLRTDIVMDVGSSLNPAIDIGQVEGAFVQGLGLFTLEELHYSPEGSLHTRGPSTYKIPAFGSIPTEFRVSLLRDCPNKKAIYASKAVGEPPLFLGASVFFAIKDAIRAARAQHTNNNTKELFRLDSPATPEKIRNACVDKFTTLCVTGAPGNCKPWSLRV
# T3 sequence (P53341 whole entry): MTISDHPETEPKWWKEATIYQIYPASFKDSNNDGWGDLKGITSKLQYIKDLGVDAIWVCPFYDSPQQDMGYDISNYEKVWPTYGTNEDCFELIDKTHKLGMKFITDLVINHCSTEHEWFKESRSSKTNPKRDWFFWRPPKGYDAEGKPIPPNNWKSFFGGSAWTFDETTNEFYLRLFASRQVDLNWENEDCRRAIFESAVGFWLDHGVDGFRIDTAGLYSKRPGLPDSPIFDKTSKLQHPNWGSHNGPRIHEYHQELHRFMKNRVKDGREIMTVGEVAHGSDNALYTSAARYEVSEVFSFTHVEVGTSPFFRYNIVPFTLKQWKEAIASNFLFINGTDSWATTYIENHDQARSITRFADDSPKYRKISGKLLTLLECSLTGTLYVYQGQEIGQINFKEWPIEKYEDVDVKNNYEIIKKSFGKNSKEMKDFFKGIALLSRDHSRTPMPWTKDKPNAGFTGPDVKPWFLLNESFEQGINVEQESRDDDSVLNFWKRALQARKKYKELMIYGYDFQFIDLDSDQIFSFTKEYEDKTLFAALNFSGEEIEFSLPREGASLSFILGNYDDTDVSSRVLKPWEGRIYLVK
# T4 sequence (P08170 whole entry): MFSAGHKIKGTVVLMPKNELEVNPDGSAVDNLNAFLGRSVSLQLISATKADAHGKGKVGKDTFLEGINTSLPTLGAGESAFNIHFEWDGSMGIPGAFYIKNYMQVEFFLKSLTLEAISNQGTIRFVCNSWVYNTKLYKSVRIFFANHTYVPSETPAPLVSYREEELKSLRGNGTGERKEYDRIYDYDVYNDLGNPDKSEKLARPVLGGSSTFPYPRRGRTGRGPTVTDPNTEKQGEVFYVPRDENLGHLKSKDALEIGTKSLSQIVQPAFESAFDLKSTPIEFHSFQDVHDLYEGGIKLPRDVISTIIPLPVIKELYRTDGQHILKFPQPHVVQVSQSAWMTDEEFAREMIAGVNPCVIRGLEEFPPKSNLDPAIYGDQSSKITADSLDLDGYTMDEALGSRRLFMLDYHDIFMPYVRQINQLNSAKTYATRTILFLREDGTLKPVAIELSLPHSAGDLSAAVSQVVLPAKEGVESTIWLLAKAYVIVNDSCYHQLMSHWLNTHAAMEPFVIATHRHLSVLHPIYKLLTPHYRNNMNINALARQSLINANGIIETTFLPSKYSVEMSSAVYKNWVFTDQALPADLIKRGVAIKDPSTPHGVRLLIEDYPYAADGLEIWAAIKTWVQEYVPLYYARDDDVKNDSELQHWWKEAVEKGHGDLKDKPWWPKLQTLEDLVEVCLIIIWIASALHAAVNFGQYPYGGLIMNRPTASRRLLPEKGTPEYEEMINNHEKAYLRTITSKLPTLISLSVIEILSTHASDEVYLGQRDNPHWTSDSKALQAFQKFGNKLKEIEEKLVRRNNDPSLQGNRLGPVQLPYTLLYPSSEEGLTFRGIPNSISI
compound,measurement,setting,value
O=c1c(O)c(-c2ccc(O)c(O)c2)oc2cc(O)cc(O)c12 [Quercetin],concentrations effectively reducing NO production,[1],above 5 μM
same,MIC,"[2]; ATCC204305, 100 % growth inhibition, read-out: MIC",> 4000 µg/mL
same,MFC,"[2]; ATCC204305, read-out: MFC",> 4000 µg/mL
same,"IC50, O2●- scavenging",[3],22.4 ± 1.1 µg/mL
same,MIC,"[4]; CECT1078, 100 % growth inhibition, read-out: MIC",1000 µg/mL
same,MFC,"[4]; CECT1078, read-out: MFC",2000 µg/mL
same,MIC,"[4]; CECT1078, read-out: MIC, 90 % growth inhibition, 90 %",750 µg/mL
same,MIC,[5]; [19],500 µg/mL
same,MFC,[5]; read-out: MFC,1000 µg/mL
same,MIC,"[6]; ATCC10231, 100 % growth inhibition, read-out: MIC",> 4000 µg/mL
same,MFC,"[6]; ATCC10231, read-out: MFC",> 4000 µg/mL
same,MIC,[7]; [19],> 4000 µg/mL
same,MFC,[7]; read-out: MFC,> 4000 µg/mL
same,"IC50, ●NO scavenging",[8],49 ± 2 µg/mL
same,MIC,"[9]; Candida krusei, 100 % growth inhibition, read-out: MIC",≥ 4000 µg/mL
same,MFC,"[9]; Candida krusei, read-out: MFC",> 4000 µg/mL
same,MIC,[10]; [19],1000 µg/mL
same,MFC,[10]; read-out: MFC,1000 µg/mL
O=C(O)c1ccc(O)c(O)c1 [Protocatechuic acid],"IC50, DPPH",[11],1.88 µg/mL
same,MFC,[2]; ATCC204305,> 4000 µg/mL
same,MIC,[2]; ATCC204305,> 4000 µg/mL
same,"IC50, O2●- scavenging",[3],252 ± 8 µg/mL
same,MFC,[4]; CECT1078,2000 µg/mL
same,MIC,"[4]; CECT1078, read-out: MIC, ≥ 95 % growth inhibition",1000 µg/mL
same,IC50,[12],908 µM
same,"IC50, O2●- scavenging",[13],310 µg/mL
same,MFC,[5],2000 µg/mL
same,MIC,[5],500 µg/mL
same,MFC,[6]; ATCC10231,> 4000 µg/mL
same,MIC,[6]; ATCC10231,> 4000 µg/mL
same,MFC,[7],> 4000 µg/mL
same,MIC,[7],> 4000 µg/mL
same,"IC25, AChE",[14],1809 ± 31 µg/mL
same,"IC25, ●NO scavenging",[8],237 ± 16 µg/mL
same,●NO scavenging activity,[8]; at the maximum tested concentration (1.33 mg/mL),below 40%
same,MFC,[9],> 4000 µg/mL
same,MIC,[9],> 4000 µg/mL
same,"IC50, ABTS",[15],0.89 µg/mL
same,"IC50, hydroxyl radicals",[16],74 µg/mL
same,IC50,[17],2760 µM
same,MFC,[10],2000 µg/mL
same,MIC,[10],2000 µg/mL
same,MIC,"[10]; read-out: MIC, 90 % growth inhibition",1000 µg/mL
same,IC50,[18],247 µM
